Reference: patent publication US9358247B2, “Methods and compositions for promoting activity of anti-cancer therapies” (Oncology Research International Limited, priority 2006, dated 2016)
pIC50: −log10 of the molar value. Read-outs that look alike come from different tables or passages of the source.

What was measured:
K562 cell line = assay: Cancer cell growth inhibition, SRB dye assay (single agents and 50:50 IC50 mixtures); assay type: cell-based, human
Method: (§1) Cancer cells were seeded the day before application of drug in triplicate or quadruplicate in 96-well plates, allowed to grow in the presence of drug for 6 days before cell growth relative to untreated control wells was determined with a dye assay.
(§2) Cells were seeded in triplicate or quadruplicate at 3-4,000 per microtitre well in 90 μl of RPMI culture medium/10% foetal calf serum/penicillin, streptomycin mix, treated with 10 μl of drug (prepared in a dilution plate at 10× concentration required), and allowed to grow until the controls were nearly confluent (6 days).
(§3) SRB: Plates were washed with PBS, fixed with methylated spirits, washed with tap water and stained with 50 μL/well of SRB solution (sulforhodamine, 0.4% in 1% acetic acid), followed by washing with tap water and 1% acetic acid, solubilisation in Tris and absorbance read at 564 nm in an ELISA reader.
(§4) Data was collected using ELISA plate reader software—SOFTmax PRO3.1.2, then imported into EXCEL. The mean and SD of replicates were calculated as a % of control, after subtraction of the blank value (wells with no cells). A graph was plotted of % control vs dose of agent and IC50 (half maximal inhibitory concentration) values determined.
(§5) Tumour cells were seeded in duplicate in 96-well plates at 2-5,000 per microtitre well containing RPMI culture medium/10% foetal calf serum. The cells were allowed to grow until the controls were nearly confluent after 5-6 days. Plates were then washed with PBS, fixed in ethanol and stained with 50 μL/well of SRB solution (sulforhodamine, 0.4% in 1% acetic acid), followed by washing with 1% acetic acid and solubilisation in Tris. The absorbance was read at 564 nm using an ELISA reader.
(§6) The IC50, or concentration required to inhibit cell growth by 50%, was determined from the percentage inhibition versus concentration data using the probit calculation methods of Finney (Finney D J (1971). Probit Analysis. 3rd Edition. Cambridge University Press).
(§7) The inhibitory data from each mixture was used to determine an IC50 of IC50 value, where the concentrations used were the Multiplying Factor values. In order to determine the actual IC50 contribution of each component in the two-component mixture, the IC50 of IC50 value was multiplied by the IC50 of the individual component. This can then be used to determine the reduction in IC50 contribution (ie, reduction in dose) of the chemotherapeutic agent due to the presence of the steroid saponin in the mixture. A simpler way of determining the reduction in dose is to use the following simple formula: […]
The cell seeding and ELISA plate methodology of Example 2 were used for determining inhibition of the K562 cell line.

DU145 cell line = assay: as above; assay type: cell-based, human; details: single agent, Example 2
Method: as §1, §2, §3, §4, §5, §6, §7

PC3 cell line = assay: as above; assay type: cell-based, human; details: single agent, Example 2
Method: as §1, §2, §3, §4, §5, §6, §7

A549 cell line = assay: as above; assay type: cell-based, human
Method: as §1, §2, §3, §4, §5, §6, §7

HT29 cell line = assay: as above; assay type: cell-based, human; details: single agent, Example 2
Method: as §1, §2, §3, §4, §5, §6, §7

LNCap cell line = assay: as above; assay type: cell-based, human; details: for Vincristine Dose Reduction: 50:50 IC50 mixture vs vincristine alone, Example 3
Method: (§8) Cancer cells were seeded the day before application of drug in triplicate or quadruplicate in 96-well plates, allowed to grow in the presence of drug for 6 days before cell growth relative to untreated control wells was determined with a dye assay. Cells were seeded in triplicate or quadruplicate at 3-4,000 per microtitre well in 90 μl of RPMI culture medium/10% foetal calf serum/penicillin, streptomycin mix, treated with 10 μl of drug (prepared in a dilution plate at 10× concentration required), and allowed to grow until the controls were nearly confluent (6 days). SRB: Plates were washed with PBS, fixed with methylated spirits, washed with tap water and stained with 50 μL/well of SRB solution (sulforhodamine, 0.4% in 1% acetic acid), followed by washing with tap water and 1% acetic acid, solubilisation in Tris and absorbance read at 564 nm in an ELISA reader. Data was collected using ELISA plate reader software—SOFTmax PRO3.1.2, then imported into EXCEL. The mean and SD of replicates were calculated as a % of control, after subtraction of the blank value (wells with no cells). A graph was plotted of % control vs dose of agent and IC50 (half maximal inhibitory concentration) values determined. […] The cells were allowed to grow until the controls were nearly confluent after 5-6 days. Plates were then washed with PBS, fixed in ethanol and stained with 50 μL/well of SRB solution (sulforhodamine, 0.4% in 1% acetic acid), followed by washing with 1% acetic acid and solubilisation in Tris. The absorbance was read at 564 nm using an ELISA reader. […] Cambridge University Press). […] The inhibitory data from each mixture was used to determine an IC50 of IC50 value, where the concentrations used were the Multiplying Factor values. In order to determine the actual IC50 contribution of each component in the two-component mixture, the IC50 of IC50 value was multiplied by the IC50 of the individual component. This can then be used to determine the reduction in IC50 contribution (ie, reduction in dose) of the chemotherapeutic agent due to the presence of the steroid saponin in the mixture. A simpler way of determining the reduction in dose is to use the following simple formula: […]

MCF7 cell line = assay: as above; assay type: cell-based, human; details: for Vincristine Dose Reduction: 50:50 IC50 mixture vs vincristine alone, Example 3
Method: as §8

[1] = tested on: PC3, DU145, A549 and HT29 cell lines; assay: Cancer cell growth inhibition, IC50 values used in assay for four cell lines (Example 5); assay type: cell-based, human; details: value used to make up 50:50 IC50 mixtures
Method: as §5, §6
The cell seeding and ELISA plate methodology of Example 2 were used for determining inhibition of four cancer cell lines. IC50 values were determined for the steroid saponins dioscin, deltonin and prosapogenin A, and their mixtures with cisplatin, docetaxel, doxorubicin and vincristine, using PC3, DU145, A549 and HT29 cell lines.

HT29 human cells = assay: In vivo tumour volume, HT29 cells subcutaneously introduced into mice, 5-fluorouracil and deltonin; set-up: species or system Balb/c nude female mice; details: 5-Fluorouracil 37.5 mg/kg 1 × weekly
Source text: 5-Fluorouracil (5FU) is the principal chemotherapeutic drug used in treating colon cancer; it is most commonly co-administered with other chemotherapeutic agents. This study compared the co-administration of 5-fluoruracil and deltonin, with administration of mono-administration of both 5-fluorourcil and deltonin.
72 female Balb/c nude female mice were microchipped, weighed and randomised based on body weight into 8 groups with 9 mice per group. […]
HT29 human […] carcinoma cells were cultured in RPMI1640 cell culture medium, which was supplemented with 10% FBS and penicillin-streptomycin (50 IU/mL final concentration). The cells were harvested by trypsinisation, washed twice in HBSS and counted. The cells were then resuspended in HBSS and adjusted to a final volume containing 2×10^7 cells/mL. For inoculation, the needle was introduced through the skin into the subcutaneous space just below the right shoulder, where 100 μL of cells (2×10^6) were discharged.
When the tumour volumes had reached an average of greater than 200 mm^3, treatment was started (Day 0). Tumour volumes were measured 3-times weekly, and determined according to the formula: V(mm^3)=length×diameter^2×π/6
Treatment was continued for 17 days. The mean tumour volumes for each dosage regime are given in Table 24 and are presented graphically in FIG. 1: […]

[2] = Homo sapiens, 144 h, single agent, Example 2, read-out: IC50
[3] = Homo sapiens, 144 h, Example 3, value used to make up 50:50 IC50 mixtures, read-out: IC50 values used in assay
[4] = Homo sapiens, 144 h, Example 4, value used to make up 50:50 IC50 mixtures, read-out: IC50 values used in assay
[5] = Example 4, value used to make up 50:50 IC50 mixtures, read-out: IC50 values used in assay
[6] = Example 3, value used to make up 50:50 IC50 mixtures, read-out: IC50 values used in assay
[7] = single agent, Example 2, read-out: IC50

| Structure (SMILES) | pIC50 (K562 cell line; [2]) | pIC50 (DU145 cell line; Homo sapiens, DU-145, 144 h) | pIC50 (PC3 cell line; Homo sapiens, PC-3, 144 h) | pIC50 (A549 cell line; [2]) | pIC50 (HT29 cell line; Homo sapiens, HT-29, 144 h) | pIC50 (LNCap cell line; [3]) | pIC50 (LNCap cell line; [2]) | pIC50 (MCF7 cell line; [3]) | pIC50 (MCF7 cell line; [2]) | pIC50 ([1]; Homo sapiens) | also measured |
| --- | --- | --- | --- | --- | --- | --- | --- | --- | --- | --- | --- |
| COc1cccc2c1C(=O)c1c(O)c3c(c(O)c1C2=O)C[C@@](O)(C(=O)CO)C[C@@H]3O[C@H]1C[C@H](N)[C@H](O)[C@H](C)O1 [Doxorubicin] | 8.07 | 7.96 | 7.66 | 7.80 | 7.55 | 8.40 | 8.41 | 7.82 | 7.85 | 7.82 |  |
| C[C@@H]1CC[C@@]2(OC1)O[C@H]1C[C@H]3[C@@H]4CC=C5C[C@@H](O[C@@H]6O[C@H](CO)[C@@H](O[C@@H]7O[C@@H](C)[C@H](O)[C@@H](O)[C@H]7O)[C@H](O)[C@H]6O[C@@H]6O[C@@H](C)[C@H](O)[C@@H](O)[C@H]6O)CC[C@]5(C)[C@H]4CC[C@]3(C)[C@H]1[C@@H]2C [Dioscin, diosgenin Rha2, [Rha4], Glc] |  |  |  |  |  | 6.00 |  | 6.00 |  | 6.00 | pIC50 (K562 cell line; Homo sapiens, 144 h, Example 6, value used to make up 50:50 IC50 mixtures, read-out: IC50 values used in assay): 6.00; pIC50 (A549 cell line; [4]): 6.00; Vincristine Dose Reduction (LNCap cell line): consistent reduction in dosage; Vincristine Dose Reduction (MCF7 cell line): consistent reduction in dosage |
| CC[C@]1(O)C[C@H]2CN(CCc3c([nH]c4ccccc34)[C@@](C(=O)OC)(c3cc4c(cc3OC)N(C=O)[C@H]3[C@@](O)(C(=O)OC)[C@H](OC(C)=O)[C@]5(CC)C=CCN6CC[C@]43[C@@H]65)C2)C1 [Vincristine] | 9.68 | 8.54 | 8.96 | 8.22 | 8.62 | 9.30 | 9.31 | 9.30 | 9.31 | 8.60 |  |
| CC(=O)O[C@H]1C(=O)[C@@]2(C)[C@H]([C@H](OC(=O)c3ccccc3)[C@]3(O)C[C@H](OC(=O)[C@H](O)[C@@H](NC(=O)c4ccccc4)c4ccccc4)C(C)=C1C3(C)C)[C@]1(OC(C)=O)CO[C@@H]1C[C@@H]2O [Paclitaxel] | < 8.48 | 8.57 | 8.68 | 8.49 | < 8.48 |  | 8.92 |  | 8.96 |  | pIC50 (A549 cell line; [4]): 8.52; pIC50 (MCF7 cell line; [4]): 9.00 |
| CC(=O)O[C@@]12CO[C@@H]1C[C@H](O)[C@@]1(C)C(=O)[C@H](O)C3=C(C)[C@@H](OC(=O)[C@H](O)[C@@H](NC(=O)OC(C)(C)C)c4ccccc4)C[C@@](O)([C@@H](OC(=O)c4ccccc4)[C@H]21)C3(C)C [Docetaxel] | 9.38 | 9.82 | 10.05 | 9.57 | 9.29 | 10.52 | 10.59 | 10.52 | 10.41 | 9.70 |  |
| C[C@@H]1CC[C@@]2(OC1)O[C@H]1C[C@H]3[C@@H]4CC=C5C[C@@H](O[C@@H]6O[C@H](CO)[C@@H](O)[C@H](O)[C@H]6O[C@@H]6O[C@@H](C)[C@H](O)[C@@H](O)[C@H]6O)CC[C@]5(C)[C@H]4CC[C@]3(C)[C@H]1[C@@H]2C [Prosapogenin A, diosgenin Rha2, Glc] |  |  |  |  |  |  |  |  |  |  | pIC50 (K562 cell line; Example 6, value used to make up 50:50 IC50 mixtures, read-out: IC50 values used in assay): 5.70; pIC50 (A549 cell line; [5]): 5.70; Vincristine Dose Reduction (LNCap cell line): effectively zero reduction; pIC50 (LNCap cell line; [6]): 5.70; Vincristine Dose Reduction (MCF7 cell line): effectively zero reduction; pIC50 (MCF7 cell line; [6]): 5.70; pIC50 (MCF7 cell line; [5]): 5.70; pIC50 [1]: 5.70 |
| N.N.[Cl][Pt][Cl] [Cisplatin] |  |  |  |  |  |  |  |  |  |  | pIC50 (K562 cell line; [7]): 6.09; pIC50 (DU145 cell line): 6.27; pIC50 (PC3 cell line): 5.85; pIC50 (A549 cell line; [7]): 5.92; pIC50 (HT29 cell line): 6.03; pIC50 (LNCap cell line; [6]): 6.10; pIC50 (LNCap cell line; [7]): 6.15; pIC50 (MCF7 cell line; [6]): 6.10; pIC50 (MCF7 cell line; [7]): 6.19; pIC50 [1]: 6.10 |
| O=c1[nH]cc(F)c(=O)[nH]1 [5-Fluorouracil (5FU), 5-Fluorouracil] |  |  |  |  |  |  |  |  |  |  | Mean tumour volume (HT29 human cells; Day 0): 236 mm^3; Mean tumour volume (HT29 human cells; Day 2): 280 mm^3; Mean tumour volume (HT29 human cells; Day 4): 307 mm^3; Mean tumour volume (HT29 human cells; Day 7): 330 mm^3; Mean tumour volume (HT29 human cells; Day 9): 432 mm^3; Mean tumour volume (HT29 human cells; Day 11): 511 mm^3; Mean tumour volume (HT29 human cells; Day 14): 681 mm^3; Mean tumour volume (HT29 human cells; Day 16): 676 mm^3; Mean tumour volume (HT29 human cells; Day 18): 824 mm^3 |
